From ChEMBL document CHEMBL5465560, “Selectivity Literature for EUbOPEN Chemogenomic Library” (2024)

What was measured:
[1] = biological target: Mitogen-activated protein kinase 6 (Homo sapiens) (UniProt Q16659); conditions: at 10 µM
[2] = biological target: AP2-associated protein kinase 1 (Homo sapiens, UniProt Q2M2I8); assay: Selectivity interaction (KinomeScan (DiscoverX)) EUB0000092b AAK1; conditions: at 10 µM
[3] = biological target: Serine/threonine-protein kinase SIK2 (Homo sapiens) (UniProt Q9H0K1); assay: Selectivity interaction (KinomeScan (DiscoverX)) EUB0000092b SIK2; conditions: at 10 µM
[4] = biological target: Rho-associated protein kinase 1 (Homo sapiens) (UniProt Q13464); assay: Selectivity interaction (Upstate Kinase Profiler service (Millipore)) EUB0000056c ROCK1; conditions: at 1 µM
[5] = biological target: SRSF protein kinase 3 (Homo sapiens) (UniProt Q9UPE1); assay: Selectivity interaction (KinomeScan (DiscoverX)) EUB0000655a SRPK3; conditions: at 10 µM
SRSF protein kinase 3 (Homo sapiens), sequence (Q9UPE1 whole entry): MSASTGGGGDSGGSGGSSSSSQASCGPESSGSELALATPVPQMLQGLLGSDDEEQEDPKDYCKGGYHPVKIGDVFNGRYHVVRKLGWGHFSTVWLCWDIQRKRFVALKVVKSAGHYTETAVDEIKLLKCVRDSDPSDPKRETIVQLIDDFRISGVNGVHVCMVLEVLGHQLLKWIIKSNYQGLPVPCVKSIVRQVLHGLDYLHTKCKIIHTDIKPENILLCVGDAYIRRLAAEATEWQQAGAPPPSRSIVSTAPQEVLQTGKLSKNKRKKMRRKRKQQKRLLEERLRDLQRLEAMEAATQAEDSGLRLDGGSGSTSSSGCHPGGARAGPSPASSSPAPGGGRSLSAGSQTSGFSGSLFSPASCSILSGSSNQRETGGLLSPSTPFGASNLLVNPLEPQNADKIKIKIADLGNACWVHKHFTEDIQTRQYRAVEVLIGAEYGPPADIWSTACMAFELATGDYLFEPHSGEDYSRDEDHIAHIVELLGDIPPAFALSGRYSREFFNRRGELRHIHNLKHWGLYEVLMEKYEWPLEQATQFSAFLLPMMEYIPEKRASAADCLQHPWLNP

[6] = biological target: Dual specificity protein kinase CLK2 (Homo sapiens, UniProt P49760); assay: Selectivity interaction (KinomeScan (DiscoverX)) EUB0001079a CLK2; conditions: at 1 µM
[7] = biological target: Inhibitor of nuclear factor kappa-B kinase subunit epsilon (Homo sapiens, UniProt Q14164); assay: Selectivity interaction (Enyzmatic assay) EUB0000601a IKBKE
[8] = biological target: Proto-oncogene tyrosine-protein kinase Src (Homo sapiens, UniProt P12931); conditions: at 10 µM
Proto-oncogene tyrosine-protein kinase Src, sequence (P12931 2-536 limits assumed): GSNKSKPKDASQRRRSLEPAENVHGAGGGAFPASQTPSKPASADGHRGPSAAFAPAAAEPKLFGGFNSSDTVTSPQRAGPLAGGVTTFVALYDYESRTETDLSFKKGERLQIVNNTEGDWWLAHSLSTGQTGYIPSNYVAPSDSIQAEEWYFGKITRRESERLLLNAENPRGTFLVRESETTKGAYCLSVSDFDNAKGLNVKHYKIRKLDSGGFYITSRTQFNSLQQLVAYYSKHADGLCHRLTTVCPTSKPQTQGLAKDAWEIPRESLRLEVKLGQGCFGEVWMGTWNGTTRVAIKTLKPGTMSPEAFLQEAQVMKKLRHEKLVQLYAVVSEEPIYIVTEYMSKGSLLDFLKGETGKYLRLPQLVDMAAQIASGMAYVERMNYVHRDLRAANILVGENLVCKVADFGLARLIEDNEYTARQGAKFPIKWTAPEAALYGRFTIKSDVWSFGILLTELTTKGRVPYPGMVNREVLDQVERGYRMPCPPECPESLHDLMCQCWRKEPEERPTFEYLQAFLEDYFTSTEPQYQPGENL

[9] = biological target: RAC-alpha serine/threonine-protein kinase (Homo sapiens, UniProt P31749); conditions: at 10 µM
RAC-alpha serine/threonine-protein kinase, sequence (P31749 whole entry): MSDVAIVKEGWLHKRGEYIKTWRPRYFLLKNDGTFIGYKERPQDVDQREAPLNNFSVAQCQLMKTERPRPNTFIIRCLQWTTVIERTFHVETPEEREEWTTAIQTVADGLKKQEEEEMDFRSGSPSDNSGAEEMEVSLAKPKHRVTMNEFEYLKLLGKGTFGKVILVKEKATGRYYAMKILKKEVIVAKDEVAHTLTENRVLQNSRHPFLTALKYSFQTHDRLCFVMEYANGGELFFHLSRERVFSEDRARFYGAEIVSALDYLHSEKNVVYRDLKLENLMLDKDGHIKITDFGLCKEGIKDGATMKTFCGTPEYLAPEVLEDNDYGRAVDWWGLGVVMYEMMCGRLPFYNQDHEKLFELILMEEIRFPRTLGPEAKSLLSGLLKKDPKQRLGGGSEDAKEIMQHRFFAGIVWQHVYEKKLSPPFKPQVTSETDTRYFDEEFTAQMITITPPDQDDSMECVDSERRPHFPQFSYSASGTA

[10] = biological target: Serine/threonine-protein kinase WNK2 (Homo sapiens) (UniProt Q9Y3S1); assay: Selectivity interaction (ActivX KiNativ screen (kinase selectivity in THP-1 cell lysates)) EUB0000639a WNK2; assay type: subcellular; conditions: lysate, at 5 µM
[11] = biological target: Cyclin-dependent kinase 18 (Homo sapiens) (UniProt Q07002); assay: Selectivity interaction (ActivX KiNativ screen (kinase selectivity in THP-1 cell lysates)) EUB0000639a CDK18; assay type: subcellular; conditions: lysate, at 5 µM
Cyclin-dependent kinase 18 (Homo sapiens), sequence (Q07002 whole entry): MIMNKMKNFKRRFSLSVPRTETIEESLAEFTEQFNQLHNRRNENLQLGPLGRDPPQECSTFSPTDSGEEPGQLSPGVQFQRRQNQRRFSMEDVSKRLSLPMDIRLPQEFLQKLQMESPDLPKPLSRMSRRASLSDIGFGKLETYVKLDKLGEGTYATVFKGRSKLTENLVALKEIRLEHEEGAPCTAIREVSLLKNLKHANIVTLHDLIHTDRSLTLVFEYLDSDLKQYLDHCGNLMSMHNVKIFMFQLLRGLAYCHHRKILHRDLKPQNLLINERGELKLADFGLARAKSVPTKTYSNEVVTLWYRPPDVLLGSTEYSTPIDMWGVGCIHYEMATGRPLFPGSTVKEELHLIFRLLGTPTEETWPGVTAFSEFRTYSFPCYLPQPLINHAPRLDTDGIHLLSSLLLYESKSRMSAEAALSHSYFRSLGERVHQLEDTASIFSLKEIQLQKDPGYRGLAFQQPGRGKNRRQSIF

[12] = biological target: Ribosomal protein S6 kinase alpha-3 (Homo sapiens, UniProt P51812); assay: Selectivity interaction (ActivX KiNativ screen (kinase selectivity in THP-1 cell lysates)) EUB0000639a RPS6KA3; assay type: subcellular; conditions: lysate, at 1 µM
[13] = biological target: T1, Alpha-2C adrenergic receptor (Homo sapiens) (UniProt P18825); assay: Selectivity interaction (Panel of kinases, GPCRs, ion channels and transporters (enzymatic assay)) EUB0000223bCl ADRA2C
T1 sequence (whole entry): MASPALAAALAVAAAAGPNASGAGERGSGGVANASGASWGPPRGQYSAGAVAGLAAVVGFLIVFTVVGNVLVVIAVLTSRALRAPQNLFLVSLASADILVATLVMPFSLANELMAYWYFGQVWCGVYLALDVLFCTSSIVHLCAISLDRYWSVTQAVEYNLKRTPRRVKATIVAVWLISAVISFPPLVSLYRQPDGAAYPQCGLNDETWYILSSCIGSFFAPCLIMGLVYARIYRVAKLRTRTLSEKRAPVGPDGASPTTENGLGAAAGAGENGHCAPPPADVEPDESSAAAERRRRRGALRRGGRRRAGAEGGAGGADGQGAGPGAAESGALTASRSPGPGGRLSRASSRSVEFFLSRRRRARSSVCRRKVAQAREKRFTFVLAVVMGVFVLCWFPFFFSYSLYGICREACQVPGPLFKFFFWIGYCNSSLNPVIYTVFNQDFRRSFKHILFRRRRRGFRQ

[14] = biological target: Cyclin-dependent kinase 18 (Homo sapiens) (UniProt Q07002); assay: Selectivity interaction (KinomeScan (DiscoverX)) EUB0001049a CDK18; conditions: at 1 µM
[15] = biological target: Serine/threonine-protein kinase MARK1 (Homo sapiens) (UniProt Q9P0L2); assay: Selectivity interaction (KinomeScan (DiscoverX)) EUB0001049a MARK1; conditions: at 1 µM
[16] = biological target: Serine/threonine-protein kinase tousled-like 2 (Homo sapiens) (UniProt Q86UE8); assay: Selectivity interaction (KinomeScan (DiscoverX)) EUB0000695a TLK2; conditions: at 100 nM
[17] = biological target: Platelet-derived growth factor receptor beta (Homo sapiens, UniProt P09619); assay: Selectivity interaction (KinomeScan (DiscoverX)) EUB0000695a PDGFRB; conditions: at 100 nM
[18] = biological target: Maternal embryonic leucine zipper kinase (Homo sapiens) (UniProt Q14680); assay: Selectivity interaction (KinomeScan (DiscoverX)) EUB0000595a MELK; conditions: at 10 µM
Maternal embryonic leucine zipper kinase (Homo sapiens), sequence (Q14680 whole entry, looked up): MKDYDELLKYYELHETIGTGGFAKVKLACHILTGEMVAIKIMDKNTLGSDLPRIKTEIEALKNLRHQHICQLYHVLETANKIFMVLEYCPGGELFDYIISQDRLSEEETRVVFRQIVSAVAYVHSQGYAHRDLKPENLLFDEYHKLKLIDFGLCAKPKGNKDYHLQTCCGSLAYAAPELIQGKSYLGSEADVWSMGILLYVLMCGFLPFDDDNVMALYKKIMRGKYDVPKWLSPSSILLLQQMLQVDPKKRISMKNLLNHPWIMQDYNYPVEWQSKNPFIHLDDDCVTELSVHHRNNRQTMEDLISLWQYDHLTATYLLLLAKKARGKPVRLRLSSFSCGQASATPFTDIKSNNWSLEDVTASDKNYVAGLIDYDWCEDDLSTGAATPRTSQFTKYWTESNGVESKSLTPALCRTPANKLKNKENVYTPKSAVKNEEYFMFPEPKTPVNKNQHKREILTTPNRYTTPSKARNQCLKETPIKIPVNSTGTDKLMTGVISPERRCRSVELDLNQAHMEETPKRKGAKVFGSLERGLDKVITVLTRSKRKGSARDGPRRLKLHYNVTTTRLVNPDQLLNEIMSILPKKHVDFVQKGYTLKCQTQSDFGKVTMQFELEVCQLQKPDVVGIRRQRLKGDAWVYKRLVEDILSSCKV

[19] = biological target: Angiopoietin-1 receptor (Homo sapiens) (UniProt Q02763); assay: Selectivity interaction (KinomeScan (DiscoverX)) EUB0000595a TEK; conditions: at 10 µM
Angiopoietin-1 receptor (Homo sapiens), sequence (Q02763 whole entry): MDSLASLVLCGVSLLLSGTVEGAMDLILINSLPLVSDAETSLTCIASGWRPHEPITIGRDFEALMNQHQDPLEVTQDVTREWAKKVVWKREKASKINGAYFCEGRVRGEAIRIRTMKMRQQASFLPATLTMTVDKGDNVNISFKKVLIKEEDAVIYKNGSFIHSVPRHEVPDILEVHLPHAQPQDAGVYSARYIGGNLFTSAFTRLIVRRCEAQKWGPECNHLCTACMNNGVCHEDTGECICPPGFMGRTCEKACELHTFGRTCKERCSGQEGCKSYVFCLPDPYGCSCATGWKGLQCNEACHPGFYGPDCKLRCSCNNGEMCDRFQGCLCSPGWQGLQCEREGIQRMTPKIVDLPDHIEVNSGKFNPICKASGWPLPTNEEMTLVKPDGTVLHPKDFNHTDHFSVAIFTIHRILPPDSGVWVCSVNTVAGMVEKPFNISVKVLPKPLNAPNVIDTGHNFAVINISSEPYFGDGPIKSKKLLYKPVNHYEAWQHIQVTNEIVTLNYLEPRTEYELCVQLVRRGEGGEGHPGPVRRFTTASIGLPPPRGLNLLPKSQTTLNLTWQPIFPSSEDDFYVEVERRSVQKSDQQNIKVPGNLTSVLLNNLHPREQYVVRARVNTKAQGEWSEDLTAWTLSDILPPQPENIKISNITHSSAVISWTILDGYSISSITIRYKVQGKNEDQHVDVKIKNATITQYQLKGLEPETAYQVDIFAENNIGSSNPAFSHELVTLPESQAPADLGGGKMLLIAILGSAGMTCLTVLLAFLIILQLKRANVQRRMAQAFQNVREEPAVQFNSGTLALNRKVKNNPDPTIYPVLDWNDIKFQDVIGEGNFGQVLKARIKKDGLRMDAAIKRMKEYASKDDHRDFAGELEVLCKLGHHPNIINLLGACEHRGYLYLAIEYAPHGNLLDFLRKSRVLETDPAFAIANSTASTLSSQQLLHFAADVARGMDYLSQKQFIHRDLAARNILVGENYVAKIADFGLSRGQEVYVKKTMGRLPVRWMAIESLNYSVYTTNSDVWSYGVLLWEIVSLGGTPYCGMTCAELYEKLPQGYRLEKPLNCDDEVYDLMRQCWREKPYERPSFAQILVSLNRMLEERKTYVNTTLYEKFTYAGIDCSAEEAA

[20] = biological target: T2, Dual specificity mitogen-activated protein kinase kinase 4 (Homo sapiens) (UniProt P45985); assay: Selectivity interaction (KinomeScan (DiscoverX)) EUB0000045b MAP2K4
T2 sequence (whole entry): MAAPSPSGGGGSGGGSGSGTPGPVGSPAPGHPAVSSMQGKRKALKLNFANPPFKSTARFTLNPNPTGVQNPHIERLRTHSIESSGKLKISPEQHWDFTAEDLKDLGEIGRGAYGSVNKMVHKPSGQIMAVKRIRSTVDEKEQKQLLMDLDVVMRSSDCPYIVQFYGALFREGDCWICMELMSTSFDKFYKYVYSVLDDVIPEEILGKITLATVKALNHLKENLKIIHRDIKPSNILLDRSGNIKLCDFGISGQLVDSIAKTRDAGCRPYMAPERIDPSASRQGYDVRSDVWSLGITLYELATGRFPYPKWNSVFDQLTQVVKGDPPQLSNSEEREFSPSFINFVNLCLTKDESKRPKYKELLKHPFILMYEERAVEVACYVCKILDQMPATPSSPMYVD

[21] = biological target: Mitogen-activated protein kinase 14 (Homo sapiens, UniProt Q16539); conditions: at 10 µM
Mitogen-activated protein kinase 14, sequence (Q16539 whole entry): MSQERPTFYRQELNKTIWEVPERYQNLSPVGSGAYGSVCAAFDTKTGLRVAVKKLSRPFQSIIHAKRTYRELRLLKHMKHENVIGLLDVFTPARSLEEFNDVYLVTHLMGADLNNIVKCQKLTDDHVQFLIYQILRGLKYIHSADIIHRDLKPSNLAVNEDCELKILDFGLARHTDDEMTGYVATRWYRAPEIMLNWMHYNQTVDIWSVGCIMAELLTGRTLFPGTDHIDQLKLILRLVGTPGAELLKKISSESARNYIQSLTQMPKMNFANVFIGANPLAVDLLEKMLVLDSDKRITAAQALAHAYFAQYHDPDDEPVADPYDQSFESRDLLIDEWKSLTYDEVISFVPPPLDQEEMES

[22] = biological target: T3, Muscarinic acetylcholine receptor M1 (Homo sapiens) (UniProt P11229); assay: Selectivity interaction (Eurofins CEREP Diversity Profile (receptors and ion channels)) EUB0000279b CHRM1; conditions: at 10 µM
T3 sequence (whole entry): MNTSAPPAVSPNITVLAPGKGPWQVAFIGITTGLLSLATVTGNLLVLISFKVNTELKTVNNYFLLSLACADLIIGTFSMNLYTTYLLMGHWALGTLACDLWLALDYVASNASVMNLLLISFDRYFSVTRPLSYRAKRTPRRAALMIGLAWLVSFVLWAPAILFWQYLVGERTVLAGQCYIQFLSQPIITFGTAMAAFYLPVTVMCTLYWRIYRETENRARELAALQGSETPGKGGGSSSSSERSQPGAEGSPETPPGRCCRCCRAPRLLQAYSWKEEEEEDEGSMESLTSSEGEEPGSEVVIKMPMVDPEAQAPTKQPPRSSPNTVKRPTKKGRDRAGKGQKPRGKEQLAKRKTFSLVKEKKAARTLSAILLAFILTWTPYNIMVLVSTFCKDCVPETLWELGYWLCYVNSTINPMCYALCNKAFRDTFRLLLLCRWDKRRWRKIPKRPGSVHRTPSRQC

Mitogen-activated protein kinase 6 (Homo sapiens), sequence (Q16659 whole entry): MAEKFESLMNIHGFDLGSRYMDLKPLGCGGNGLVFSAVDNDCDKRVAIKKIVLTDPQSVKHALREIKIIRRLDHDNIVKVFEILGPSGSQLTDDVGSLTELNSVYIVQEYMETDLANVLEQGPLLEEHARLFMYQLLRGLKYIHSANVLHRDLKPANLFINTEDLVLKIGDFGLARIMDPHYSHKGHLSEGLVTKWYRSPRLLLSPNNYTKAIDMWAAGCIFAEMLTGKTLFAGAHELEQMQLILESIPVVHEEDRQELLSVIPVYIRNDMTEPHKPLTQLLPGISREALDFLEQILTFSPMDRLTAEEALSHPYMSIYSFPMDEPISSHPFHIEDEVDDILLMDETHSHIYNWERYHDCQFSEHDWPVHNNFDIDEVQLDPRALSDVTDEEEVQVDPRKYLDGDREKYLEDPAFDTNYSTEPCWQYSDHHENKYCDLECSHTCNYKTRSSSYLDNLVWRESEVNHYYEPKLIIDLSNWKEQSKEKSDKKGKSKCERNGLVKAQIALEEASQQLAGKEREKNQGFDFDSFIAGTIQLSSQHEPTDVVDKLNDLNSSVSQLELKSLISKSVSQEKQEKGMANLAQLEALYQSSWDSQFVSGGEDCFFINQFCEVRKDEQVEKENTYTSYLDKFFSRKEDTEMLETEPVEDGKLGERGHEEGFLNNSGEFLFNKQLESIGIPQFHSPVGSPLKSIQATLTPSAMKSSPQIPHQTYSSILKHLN

## CCN(CC)CCCCNc1ncc2cc(-c3cc(OC)cc(OC)c3)c(NC(=O)NC(C)(C)C)nc2n1
[1]
  % of control: 100%

## CCC(=O)N1CCN(c2ccc(-n3c(=O)ccc4cnc5ccc(-c6cnc7ccccc7c6)cc5c43)cc2C(F)(F)F)CC1
[2]
  % of control: 75%
[3]
  % of control: 23%

## Cc1ccc(-c2ccc3c(ccc4sc5c(c43)NC[C@@H](C)NC5=O)n2)cn1
[4]
  % of inhibition: -13%

## CN(C)CCOc1ccc(-c2nc(-c3ccncc3)c(-c3ccc4c(c3)CC/C4=N\O)[nH]2)cc1
[5]
  % of control: 100%

## Nc1cnc(N2CCc3cc(S(=O)(=O)Nc4c(F)cc(Cl)cc4F)cc(N4CCCC4=O)c32)nc1 [TP-020n]
[6]
  % of control: 100%

## CCc1cc(Nc2nccc(-c3c(-c4ccc(OC)c(C(=O)Nc5c(F)cccc5F)c4)nc4ccccn34)n2)c(OC)cc1N1CCC(N2CCN(S(C)(=O)=O)CC2)CC1
[7]
  IC50: 3.2 µM

## Cc1cc([C@@H](C)Nc2ccccc2C(=O)O)c2nc(N3CCOCC3)cc(=O)n2c1 [AZD-6482]
[8]
  % of control: 100%
[9]
  % of control: 100%

## CC[C@@H]1[C@H](F)C(=O)N[C@@H]1COc1nccc2cc(C(N)=O)c(OC)cc12 [ZIMLOVISERTIB]
[10]
  % of inhibition: -14.5%
[11]
  % of inhibition: 6.5%
[12]
  % of inhibition: -8.2%

## COc1cc(C(=O)N2CC[C@@H](O)[C@@H](N)C2)cc2nc(-c3cc4ccccc4n3CC3CC3)n(C)c12
[13]
  pXC50: < 4.5 M

## COc1cc(Nc2nc(C)cc(-c3cnn4nc(OC)ccc34)n2)cc(C(F)(F)F)c1
[14]
  % of control: 87%
[15]
  % of control: 98%

## Cc1cc(F)c(C(=O)Nc2cccc(-c3nncn3C(C)C)n2)cc1-n1cnc(C2CC2)c1
[16]
  % of control: 100%
[17]
  % of control: 90%

## COCC(=O)NC/C=C/c1ccc2ncnc(Nc3ccc(Oc4ccc(C)nc4)c(C)c3)c2c1 [CP-724714]
[18]
  % of control: 92%
[19]
  % of control: 100%

## C=CC(=O)Nc1cc(-n2c(=O)ccc3cnc4ccc(-c5ccc(NS(C)(=O)=O)cc5)cc4c32)ccc1C
[20]; at 1 µM
  % of control: 100%
[20]; at 10 µM
  % of control: 4.9%

## O[C@H]1CC[C@H](Nc2ncc3nc(Nc4c(F)cc(F)cc4F)n([C@H]4CCOC4)c3n2)CC1
[21]
  % of control: 3.4%

## CC(=O)c1cc(-c2ccccc2OCC2CC2)c2ncccn12
[22]
  % of control: 115%
